Measured values from paper PMC8539420, “Discovery of a Potent and Selective JNK3 Inhibitor with Neuroprotective Effect Against Amyloid β-Induced Neurotoxicity in Primary Rat Neurons” (International Journal of Molecular Sciences, 2021).

Legend:
[1] = test system: primary rat cortical neuron; assay: Cell viability (MTT) from Aβ-induced neurotoxicity; type: cell-based; conditions: for Neuroprotection: Aβ-induced primary rat cortical neuronal death
From the text: (§1) To establish whether the derived selective JNK3 inhibitor actually has the ability to protect neurons from amyloid β-induced neuronal cell death, which is known as the pathogenesis of Alzheimer’s disease, we performed cytotoxicity experiments using Aβ 42, which is known as the most toxic fragment of the amyloid protein. The amyloid-β is known to mainly cause apoptosis during cell death, so it was confirmed whether the derived selective JNK3 inhibitors affect the activation (cleavage) of caspase-3, which are apoptosis-related signaling substances. […] This means that selective JNK3 inhibitors can inhibit apoptosis signaling by amyloid-β in neurons, thereby inhibiting apoptosis. Additionally, we confirmed that JNK activation was induced by amyloid-β in neurons, and the derived selective JNK3 inhibitors could inhibit JNK activation induced by amyloid-β. […] Then, the experiments for JNK3 inhibitors’ effect on the viability of neurons were conducted for five 6-dihydroxy benzimidazoles (35a-35e) by comparing it with previously published resveratrol as a positive control. On the 5th day of rat primary cortical neuron differentiation, each compound was pre-treated for 90 min and then treated with 10 μM Aβ 42 (HIFP-treated) for 24 or 48 h, and cell viability was measured by MTT assay.
In initial experiments, rat hippocampal cells grown in serum-free neurobasal media containing B27 supplements at day 6 were treated with different concentrations of Aβ1–42 or Aβ1–40 for 24 h and then the cell viability was measured by colorimetric MTT assay. Aggregated Aβ1–42 and Aβ1–40 caused up to 40–60% cell death at concentrations ranging from […]. […] Resveratrol was active against various amyloid-related peptides including Aβ1–42, the most neurotoxic amyloid derivative present in the AD brain. […] Primary Rat Cortex Neurons, Sprague Dawley (Gibco, A36512, Fisher Scientific, Göteborg, Sweden), were cultured in Neurobasal™ Plus culture medium (Gibco, A3582901 Fisher Scientific, Göteborg, Sweden), supplemented with B-27™ Supplement (Gibco, A3582801 Fisher Scientific, Göteborg, Sweden) and 0.5 mM GlutaMAX™ Supplement (Gibco, 35050061 Fisher Scientific, Göteborg, Sweden) at 37 °C in a humidified 5% CO2 atmosphere. We plated –2 × 10^5 live cells per well in a poly-D-lysine/laminin coated 24-well plate. For neural differentiation, half of the medium was replaced with fresh complete medium every third day. On day 6, we removed half the volume of media from the culture plate, added an equal amount of complete culture media containing test compounds or vehicle to each well, and incubated them for 90 min at 37 °C and 5% CO2. Immediately prior to use, amyloid β-Protein (1–42) (HFIP-treated) (Bachem, 4090148.0100) was dissolved in 1% NH4OH, further diluted with culture medium, and added into the plates to a final concentration of 10 μM. Cells were incubated for 24 h with vehicle control or test compounds in the presence or absence of Aβ42. Cell viability was measured using the MTT [3-(4, 5-dimethylthiazol-2-yl)-2,5-diphenyltetrazolium bromide] assay. MTT solution was added into each well at a final concentration of 0.5 mg/mL, and cells were incubated at 37 °C for 4 h. The absorbance was detected at 540 nm (reference 650 nm) with a microplate reader. All results were normalized to OD values measured from the vehicle control (DMSO). […]
Primary Rat Cortex Neurons, Sprague Dawley (Gibco, A36512) were cultured in Neurobasal™ Plus culture medium (Gibco, A3582901), supplemented with B-27™ Supplement (Gibco, A3582801) and 0.5mM GlutaMAX™ Supplement (Gibco, 35050061) at 37 °C in a humidified 5% CO2 atmosphere. Plate ~2 × 10^5 live cells per well in a poly-D-lysine/laminin coated 24-well plate. For neural differentiation, half of the medium was replaced with fresh complete medium every third day. On day 6, remove half the volume of media from the culture plate and add an equal amount of complete culture media […]

c-jun = assay: Amyloid-β-induced JNK activation (c-jun phosphorylation) in neurons; type: cell-based; conditions: rat primary cortical neurons
From the text: as §1, with “assay. […]” for “assay.”

AXL = target: T1, AXL (Homo sapiens, UniProt P30530); assay: Kinase panel screening 1 μM; type: biochemical; conditions: read-out: enzymatic inhibition AXL
T1 construct: purchased Reaction Biology Corp. (Kinase HotSpot)

ALK = target: T2, ALK (Homo sapiens, UniProt Q9UM73); assay: Kinase panel screening 1 μM; type: biochemical; conditions: read-out: enzymatic inhibition ALK
T2 construct: purchased Reaction Biology Corp. (Kinase HotSpot)

EGFR = target: T3, EGFR (Homo sapiens, UniProt P00533); assay: Kinase panel screening 1 μM; type: biochemical; conditions: read-out: enzymatic inhibition EGFR
T3 construct: purchased Reaction Biology Corp. (Kinase HotSpot)

Aurora A = target: T4, Aurora A (Homo sapiens, UniProt O14965); assay: Kinase panel screening 1 μM; type: biochemical; conditions: read-out: enzymatic inhibition Aurora A
T4 construct: purchased Reaction Biology Corp. (Kinase HotSpot)

caspase-3 = assay: Western blot of amyloid-β-induced caspase-3 activation (cleavage) in neurons; type: cell-based, rat; conditions: pre-treated 90 minutes, 10 μM amyloid-β1-42 24 hours
From the text: as §1, with “assay. […]” for “assay.”

T1 sequence (P30530 26-894): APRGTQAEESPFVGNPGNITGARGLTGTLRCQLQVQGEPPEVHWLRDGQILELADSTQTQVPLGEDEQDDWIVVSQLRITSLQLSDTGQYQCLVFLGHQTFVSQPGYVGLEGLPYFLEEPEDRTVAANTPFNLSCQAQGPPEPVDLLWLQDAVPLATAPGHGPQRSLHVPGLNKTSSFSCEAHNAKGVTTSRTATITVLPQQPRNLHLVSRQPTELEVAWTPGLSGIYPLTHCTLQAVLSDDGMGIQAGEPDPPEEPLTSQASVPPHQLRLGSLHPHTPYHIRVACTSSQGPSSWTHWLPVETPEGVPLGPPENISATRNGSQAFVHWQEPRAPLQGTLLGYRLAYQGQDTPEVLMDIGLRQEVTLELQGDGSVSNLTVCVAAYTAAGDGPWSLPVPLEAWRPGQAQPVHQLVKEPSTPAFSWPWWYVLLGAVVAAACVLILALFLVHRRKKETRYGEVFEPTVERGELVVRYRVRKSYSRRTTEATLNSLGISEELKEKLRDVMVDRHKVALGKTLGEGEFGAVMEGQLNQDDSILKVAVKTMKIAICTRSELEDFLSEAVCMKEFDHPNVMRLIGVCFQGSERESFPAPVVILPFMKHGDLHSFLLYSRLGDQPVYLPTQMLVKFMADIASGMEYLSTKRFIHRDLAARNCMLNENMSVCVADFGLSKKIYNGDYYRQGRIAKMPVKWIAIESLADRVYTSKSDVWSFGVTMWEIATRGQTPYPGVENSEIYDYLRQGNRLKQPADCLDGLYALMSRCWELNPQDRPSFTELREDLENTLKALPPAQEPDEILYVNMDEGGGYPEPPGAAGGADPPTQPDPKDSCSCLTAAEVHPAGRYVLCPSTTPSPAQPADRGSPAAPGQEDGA
T2 sequence (Q9UM73 19-1620): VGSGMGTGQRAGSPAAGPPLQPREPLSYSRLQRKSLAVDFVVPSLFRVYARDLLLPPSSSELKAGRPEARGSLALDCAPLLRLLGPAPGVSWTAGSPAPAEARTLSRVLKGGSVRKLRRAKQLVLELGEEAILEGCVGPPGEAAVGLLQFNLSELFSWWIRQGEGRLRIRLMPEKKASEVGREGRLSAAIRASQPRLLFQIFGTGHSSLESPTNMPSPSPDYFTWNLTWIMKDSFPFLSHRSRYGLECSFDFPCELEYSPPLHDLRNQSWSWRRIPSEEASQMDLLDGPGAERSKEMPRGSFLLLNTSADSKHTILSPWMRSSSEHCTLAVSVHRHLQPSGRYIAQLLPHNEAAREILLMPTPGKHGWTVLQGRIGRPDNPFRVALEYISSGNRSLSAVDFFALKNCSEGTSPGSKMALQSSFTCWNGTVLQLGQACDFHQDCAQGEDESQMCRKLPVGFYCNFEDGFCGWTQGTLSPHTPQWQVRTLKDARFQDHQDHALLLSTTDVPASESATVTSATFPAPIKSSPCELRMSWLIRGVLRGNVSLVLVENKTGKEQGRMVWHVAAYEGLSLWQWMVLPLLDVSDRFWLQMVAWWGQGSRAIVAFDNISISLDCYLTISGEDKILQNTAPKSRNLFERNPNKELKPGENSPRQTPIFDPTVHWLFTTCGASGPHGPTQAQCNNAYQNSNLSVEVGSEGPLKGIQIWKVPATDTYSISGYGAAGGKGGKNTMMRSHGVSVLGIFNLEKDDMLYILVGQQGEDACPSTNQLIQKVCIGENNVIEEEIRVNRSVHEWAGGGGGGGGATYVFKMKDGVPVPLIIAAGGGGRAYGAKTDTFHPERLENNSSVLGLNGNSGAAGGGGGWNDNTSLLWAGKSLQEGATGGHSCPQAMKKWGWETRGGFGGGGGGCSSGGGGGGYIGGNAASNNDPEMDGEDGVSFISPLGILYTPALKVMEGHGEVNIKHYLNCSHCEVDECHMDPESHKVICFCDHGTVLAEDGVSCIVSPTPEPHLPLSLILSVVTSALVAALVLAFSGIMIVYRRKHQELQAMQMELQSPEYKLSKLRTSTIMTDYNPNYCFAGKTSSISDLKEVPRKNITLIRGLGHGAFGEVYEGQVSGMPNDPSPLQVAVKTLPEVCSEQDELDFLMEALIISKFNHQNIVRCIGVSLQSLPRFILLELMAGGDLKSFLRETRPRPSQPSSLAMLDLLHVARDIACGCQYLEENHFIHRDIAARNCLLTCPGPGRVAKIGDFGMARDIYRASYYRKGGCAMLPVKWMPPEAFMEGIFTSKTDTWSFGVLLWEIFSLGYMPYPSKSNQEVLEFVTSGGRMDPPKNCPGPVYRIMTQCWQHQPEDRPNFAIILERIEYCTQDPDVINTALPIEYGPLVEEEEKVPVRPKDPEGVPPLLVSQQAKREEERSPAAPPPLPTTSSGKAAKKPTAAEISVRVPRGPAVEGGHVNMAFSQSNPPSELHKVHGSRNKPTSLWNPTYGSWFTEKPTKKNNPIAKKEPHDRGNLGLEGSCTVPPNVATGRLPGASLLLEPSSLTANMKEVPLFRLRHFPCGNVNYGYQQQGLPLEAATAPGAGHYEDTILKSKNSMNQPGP
T4 sequence (O14965 whole entry): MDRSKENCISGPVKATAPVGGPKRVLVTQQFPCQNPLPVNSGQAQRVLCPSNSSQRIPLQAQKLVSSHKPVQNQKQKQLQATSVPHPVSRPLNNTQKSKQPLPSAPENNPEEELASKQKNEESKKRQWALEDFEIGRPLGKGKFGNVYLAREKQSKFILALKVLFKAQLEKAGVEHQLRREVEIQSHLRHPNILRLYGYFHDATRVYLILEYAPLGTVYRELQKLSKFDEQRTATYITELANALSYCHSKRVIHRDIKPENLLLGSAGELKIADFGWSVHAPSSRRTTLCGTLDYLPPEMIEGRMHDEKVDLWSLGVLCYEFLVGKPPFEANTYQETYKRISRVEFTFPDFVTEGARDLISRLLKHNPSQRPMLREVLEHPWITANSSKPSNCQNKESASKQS
T3 sequence (P00533 25-1210): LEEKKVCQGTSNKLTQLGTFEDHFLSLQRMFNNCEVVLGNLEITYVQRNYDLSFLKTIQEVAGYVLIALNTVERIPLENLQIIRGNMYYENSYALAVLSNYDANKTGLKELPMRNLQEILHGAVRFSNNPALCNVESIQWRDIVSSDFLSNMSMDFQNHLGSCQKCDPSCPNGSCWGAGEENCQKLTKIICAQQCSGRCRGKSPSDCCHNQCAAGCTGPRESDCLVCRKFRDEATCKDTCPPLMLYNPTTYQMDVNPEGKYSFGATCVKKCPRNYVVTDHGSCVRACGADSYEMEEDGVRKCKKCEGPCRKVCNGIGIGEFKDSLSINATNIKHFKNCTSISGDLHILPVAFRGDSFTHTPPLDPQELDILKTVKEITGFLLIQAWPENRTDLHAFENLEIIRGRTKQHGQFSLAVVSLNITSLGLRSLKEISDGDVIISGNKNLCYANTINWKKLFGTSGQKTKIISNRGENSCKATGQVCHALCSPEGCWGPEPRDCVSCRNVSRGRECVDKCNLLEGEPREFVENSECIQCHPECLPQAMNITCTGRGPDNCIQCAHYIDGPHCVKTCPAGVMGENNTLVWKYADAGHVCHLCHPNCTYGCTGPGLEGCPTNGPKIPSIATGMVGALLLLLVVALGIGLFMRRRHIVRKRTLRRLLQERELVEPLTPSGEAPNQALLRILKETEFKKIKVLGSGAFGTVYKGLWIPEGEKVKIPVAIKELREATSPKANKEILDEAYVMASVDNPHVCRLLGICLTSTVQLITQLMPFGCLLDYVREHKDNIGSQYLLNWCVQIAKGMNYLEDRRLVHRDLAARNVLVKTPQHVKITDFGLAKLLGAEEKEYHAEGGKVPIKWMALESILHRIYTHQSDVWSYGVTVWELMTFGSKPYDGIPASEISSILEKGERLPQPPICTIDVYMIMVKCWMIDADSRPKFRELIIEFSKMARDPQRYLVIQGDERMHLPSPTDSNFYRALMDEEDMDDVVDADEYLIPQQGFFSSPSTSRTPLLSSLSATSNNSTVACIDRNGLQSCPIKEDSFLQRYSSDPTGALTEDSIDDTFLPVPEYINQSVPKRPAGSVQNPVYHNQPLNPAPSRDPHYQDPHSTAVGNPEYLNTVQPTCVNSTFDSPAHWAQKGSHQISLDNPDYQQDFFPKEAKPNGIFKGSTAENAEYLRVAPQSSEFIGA

inhibition at 1 µM (AXL): 6.37% | inhibition at 1 µM (ALK): 12.5% | inhibition at 1 µM (EGFR): 0% | inhibition at 1 µM (Aurora A): 25.6%
SMILES: O=C(C1CC1)N1CCC[C@H](Nc2nccc(-n3c(-c4ccc5c(c4)OCCO5)nc4cc(O)c(O)cc43)n2)C1 [35b, (S)-Cyclopropyl(3-((4-(2-(2,3-dihydrobenzo[b][1,4]dioxin-6-yl)-5,6-dihydroxy-1H-benzo[d]imidazol-1-yl)pyrimidin-2-yl)amino)piperidin-1-yl)methanone]
Neuroprotection [1]: 95.7% | Neuroprotection ([1]; listed as Present report): > 95.7 ± 2.9% | Cell viability, Mean ([1]; pre-treated 90 min, then 10 μM Aβ42, MTT, normalized to vehicle control (DMSO), compound concentration not given): 95.7 ± 2.9% | phosphorylation of c-jun induced by amyloid-β (c-jun): inhibit phosphorylation of c-jun | activation (cleavage) of caspase-3 by amyloid-β (caspase-3): inhibited the activation of caspase-3
